In PubChem BioAssay AID248 (DTP/NCI, 2004) one finds T/C data, which are given here for 16 compounds.

Where “and” joins values, the source holds several entries; their conditions need not be identical. Equal entries are not always repeated. Inconclusive results and toxic doses are left out.

The test relates to L1210 leukemia ip in BDF1 mice, survival T/C. In words: NCI In Vivo Anticancer Drug Screen. Data for tumor model L1210 Leukemia (intraperitoneal) in B6D2F1 (BDF1) mice. To be noted: endpoint: mean survival time, higher = longer survival. In a few lines: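 Tumor was transplanted into mice, which were then dosed with test compound or vehicle alone. Survival was recorded for each group, and the treated figure was expressed relative to the control figure.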

Setting [1] is: dose: 50.0 mg/kg/injection, schedule: Q01DX009 (ip), vehicle: Klucel (hydroxypropylcellulose) (HPC).
Setting [2] is: dose: 100.0 mg/kg/injection, schedule: Q01DX009 (ip), vehicle: Klucel (hydroxypropylcellulose) (HPC).
The mark [3] stands for this setting: dose: 200.0 mg/kg/injection, schedule: Q01DX009 (ip), vehicle: Klucel (hydroxypropylcellulose) (HPC).
Where [4] appears, read: dose: 50.0 mg/kg/injection, schedule: Q01DX009 (ip), vehicle: saline with Tween-80.
[5] abbreviates: dose: 100.0 mg/kg/injection, schedule: Q01DX001 (ip), vehicle: Klucel (hydroxypropylcellulose) (HPC).
Setting [6] is: dose: 100.0 mg/kg/injection, schedule: Q01DX001 (ip), vehicle: saline with Tween-80.
The mark [7] stands for this setting: dose: 100.0 mg/kg/injection, schedule: Q04DX003 (ip), vehicle: saline with Tween-80.
[8] abbreviates: dose: 200.0 mg/kg/injection, schedule: Q01DX001 (ip), vehicle: saline with Tween-80.
Setting [9] is: dose: 200.0 mg/kg/injection, schedule: Q04DX003 (ip), vehicle: saline with Tween-80.
Where [10] appears, read: dose: 400.0 mg/kg/injection, schedule: Q04DX003 (ip), vehicle: saline with Tween-80.
Setting [11] is: dose: 100.0 mg/kg/injection, schedule: Q04DX002 (ip), vehicle: Klucel (hydroxypropylcellulose) (HPC).
[12] abbreviates: dose: 200.0 mg/kg/injection, schedule: Q04DX002 (ip), vehicle: Klucel (hydroxypropylcellulose) (HPC).
Where [13] appears, read: dose: 400.0 mg/kg/injection, schedule: Q04DX002 (ip), vehicle: Klucel (hydroxypropylcellulose) (HPC).

Consider `CC(C)(C)NC(=O)C1C2CCC1C2Cl` (configuration not stated), for which the T/C was 96 % of control (dose: 75.0 mg/kg/injection, schedule: Q01DX001 (ip), vehicle: saline); 92 % of control (dose: 150.0 mg/kg/injection, schedule: Q01DX001 (ip), vehicle: saline); 90 % of control (dose: 300.0 mg/kg/injection, schedule: Q01DX001 (ip), vehicle: saline).

As for `Oc1ccc(C2CCCCC2)c(O)c1`, the T/C was 96 % of control under setting [1]; 101 % of control (dose: 50.0 mg/kg/injection, schedule: Q04DX003 (ip), vehicle: Klucel (hydroxypropylcellulose) (HPC)); 96 % of control under setting [2]; 98 % of control (dose: 100.0 mg/kg/injection, schedule: Q04DX003 (ip), vehicle: Klucel (hydroxypropylcellulose) (HPC)); 100 % of control under setting [3]; 103 % of control (dose: 200.0 mg/kg/injection, schedule: Q04DX003 (ip), vehicle: Klucel (hydroxypropylcellulose) (HPC)).

Regarding `Cc1ccc(/C=C(\C#N)C(=O)O)cc1`, the T/C runs as follows: (dose: 12.5 mg/kg/injection, schedule: Q01DX009 (ip), vehicle: saline with Tween-80) 94 % of control; (dose: 25.0 mg/kg/injection, schedule: Q01DX009 (ip), vehicle: saline with Tween-80) 94 % of control; under setting [4], 100 % of control and 88 % of control.

Consider `O=C(NC1CCCCC1)c1ccc([N+](=O)[O-])cc1`, for which the T/C runs as follows: under setting [5], 104 % of control; (dose: 200.0 mg/kg/injection, schedule: Q01DX001 (ip), vehicle: Klucel (hydroxypropylcellulose) (HPC)) 101 % of control; (dose: 400.0 mg/kg/injection, schedule: Q01DX001 (ip), vehicle: Klucel (hydroxypropylcellulose) (HPC)) 101 % of control.

As for `Cc1ncc(C(=O)c2ccccc2)n1Cc1ccccc1`, the T/C reads like this: under setting [6], 88 % of control; under setting [7], 94 % of control; under setting [8], 90 % of control; (dose: 200.0 mg/kg/injection, schedule: Q01DX009 (ip), vehicle: saline with Tween-80) 94 % of control and 107 % of control; under setting [9], 92 % of control; (dose: 400.0 mg/kg/injection, schedule: Q01DX001 (ip), vehicle: saline with Tween-80) 95 % of control. The T/C is 96 % of control and 100 % of control (dose: 400.0 mg/kg/injection, schedule: Q01DX009 (ip), vehicle: saline with Tween-80); 90 % of control under setting [10].

In the case of `COc1ccc(/C=C2\N=C(c3cc(OC)c(OC)c(OC)c3)OC2=O)cc1`, the T/C by setting is: under setting [11], 95 % of control; under setting [12], 98 % of control; under setting [13], 88 % of control.

As to `CN(C)C=NCCNc1ccc([N+](=O)[O-])cn1`, the T/C is, setting by setting: under setting [4], 100 % of control; under setting [6], 98 % of control; (dose: 100.0 mg/kg/injection, schedule: Q01DX009 (ip), vehicle: saline with Tween-80) 100 % of control; under setting [8], 95 % of control.

Take `CC[C@@H]1C[C@H]2CC3c4[nH]c5ccc(OC)cc5c4CCN(C2)C31`: the T/C was 96 % of control (dose: 25.0 mg/kg/injection, schedule: Q01DX001 (ip), vehicle: saline with Tween-80); 96 % of control (dose: 50.0 mg/kg/injection, schedule: Q01DX001 (ip), vehicle: saline with Tween-80); 93 % of control and 109 % of control under setting [6].

With `CCOC(=O)c1c(-c2ccccc2)csc1NC(=O)c1ccccc1`, the T/C is 92 % of control (dose: 50.0 mg/kg/injection, schedule: Q04DX003 (ip), vehicle: saline with Tween-80); 90 % of control under setting [7]; 89 % of control under setting [9]; 90 % of control under setting [10].

In the case of `Cc1c(C(=O)O)c(C(=O)O)c(C)n1-c1ccccc1C(=O)O` (tested in a mixture with another compound), the T/C was 106 % of control (dose: 100.0 mg/kg/injection, schedule: Q04DX003 (ip), vehicle: saline) and 101 % of control (dose: 200.0 mg/kg/injection, schedule: Q04DX003 (ip), vehicle: saline).

With `OCC1(Br)CCC(Br)(CO)CC1` (configuration not stated), the T/C was 103 % of control under setting [11]; 104 % of control under setting [7]; 111 % of control under setting [12]; 98 % of control under setting [9]; 107 % of control under setting [13]; 96 % of control under setting [10].

For `COc1ccc(NC(=O)N(CCCl)N=O)cc1`, the T/C is 112 % of control (dose: 0.12 mg/kg/injection, schedule: Q01DX Z (ip), vehicle: carboxymethylcellulose (CMC)); 123 % of control (dose: 1.25 mg/kg/injection, schedule: Q01DX Z (ip), vehicle: carboxymethylcellulose (CMC)); 200 % of control (dose: 4.4 mg/kg/injection, schedule: Q01DX015 (ip), vehicle: saline); 192 % of control (dose: 4.4 mg/kg/injection, schedule: Q01DX Z (ip), vehicle: carboxymethylcellulose (CMC)); 160 % of control (dose: 5.0 mg/kg/injection, schedule: Q01DX Z (ip), vehicle: carboxymethylcellulose (CMC)); 224 % of control (dose: 6.6 mg/kg/injection, schedule: Q01DX015 (ip), vehicle: saline). In addition, the T/C is 222 % of control (dose: 6.6 mg/kg/injection, schedule: Q01DX Z (ip), vehicle: carboxymethylcellulose (CMC)); 160 % of control (dose: 9.9 mg/kg/injection, schedule: Q01DX001 (ip), vehicle: carboxymethylcellulose (CMC)); 196 % of control (dose: 10.0 mg/kg/injection, schedule: Q01DX015 (ip), vehicle: saline); 187 % of control (dose: 10.0 mg/kg/injection, schedule: Q01DX Z (ip), vehicle: carboxymethylcellulose (CMC)); 195 % of control (dose: 15.0 mg/kg/injection, schedule: Q01DX015 (ip), vehicle: saline); 120 % of control (dose: 15.0 mg/kg/injection, schedule: Q01DX Z (ip), vehicle: carboxymethylcellulose (CMC)). The T/C was 166 % of control (dose: 19.8 mg/kg/injection, schedule: Q01DX001 (ip), vehicle: carboxymethylcellulose (CMC)); 93 % of control (dose: 20.0 mg/kg/injection, schedule: Q01DX Z (ip), vehicle: carboxymethylcellulose (CMC)); 206 % of control (dose: 39.6 mg/kg/injection, schedule: Q01DX001 (ip), vehicle: carboxymethylcellulose (CMC)); 158 % of control (dose: 60.0 mg/kg/injection, schedule: Q01DX001 (ip), vehicle: saline); 105 % of control (dose: 79.2 mg/kg/injection, schedule: Q01DX001 (ip), vehicle: carboxymethylcellulose (CMC)); 111 % of control (dose: 120.0 mg/kg/injection, schedule: Q01DX001 (ip), vehicle: saline). The T/C (dose: 240.0 mg/kg/injection, schedule: Q01DX001 (ip), vehicle: saline) was 156 % of control.

With `CC(=O)NNc1ccnc(SCc2ccccc2)n1`, the T/C by setting is: (dose: 100.0 mg/kg/injection, schedule: Q04DX003 (ip), vehicle: gum acacia) 94 % of control; (dose: 200.0 mg/kg/injection, schedule: Q04DX003 (ip), vehicle: gum acacia) 87 % of control; (dose: 400.0 mg/kg/injection, schedule: Q04DX003 (ip), vehicle: gum acacia) 94 % of control.

As to `CC1(C)N=C(N)N=C(N)N1c1cccc(OCCCc2ccccc2)c1`, the T/C runs as follows: (dose: 25.0 mg/kg/injection, schedule: Q01DX001 (ip), vehicle: Klucel (hydroxypropylcellulose) (HPC)) 86 % of control; (dose: 50.0 mg/kg/injection, schedule: Q01DX001 (ip), vehicle: Klucel (hydroxypropylcellulose) (HPC)) 86 % of control; under setting [5], 91 % of control.

Regarding `CCCCCCC[CH2][Sn]([Cl])([Cl])[CH2]CCCCCCC`, the T/C by setting is: (dose: 50.0 mg/kg/injection, schedule: Q01DX001 (ip), vehicle: carboxymethylcellulose (CMC)) 96 % of control; (dose: 100.0 mg/kg/injection, schedule: Q01DX001 (ip), vehicle: carboxymethylcellulose (CMC)) 96 % of control; (dose: 200.0 mg/kg/injection, schedule: Q01DX001 (ip), vehicle: carboxymethylcellulose (CMC)) 96 % of control; (dose: 400.0 mg/kg/injection, schedule: Q01DX001 (ip), vehicle: carboxymethylcellulose (CMC)) 96 % of control.

For the compound `CC1([N+](=O)[O-])COC2(CCCCC2)OC1`, the T/C reads like this: under setting [1], 100 % of control; under setting [2], 96 % of control; under setting [3], 91 % of control.
